In ChEMBL document CHEMBL1146785, “Synthesis and activity of phosphinic tripeptide inhibitors of cathepsin C” (Bioorg Med Chem Lett, 2004):
pKi: −log10 of the molar value.

Target: T1, Dipeptidyl peptidase 1 (Mus musculus, UniProt P97821)
T1 sequence (P97821 whole entry): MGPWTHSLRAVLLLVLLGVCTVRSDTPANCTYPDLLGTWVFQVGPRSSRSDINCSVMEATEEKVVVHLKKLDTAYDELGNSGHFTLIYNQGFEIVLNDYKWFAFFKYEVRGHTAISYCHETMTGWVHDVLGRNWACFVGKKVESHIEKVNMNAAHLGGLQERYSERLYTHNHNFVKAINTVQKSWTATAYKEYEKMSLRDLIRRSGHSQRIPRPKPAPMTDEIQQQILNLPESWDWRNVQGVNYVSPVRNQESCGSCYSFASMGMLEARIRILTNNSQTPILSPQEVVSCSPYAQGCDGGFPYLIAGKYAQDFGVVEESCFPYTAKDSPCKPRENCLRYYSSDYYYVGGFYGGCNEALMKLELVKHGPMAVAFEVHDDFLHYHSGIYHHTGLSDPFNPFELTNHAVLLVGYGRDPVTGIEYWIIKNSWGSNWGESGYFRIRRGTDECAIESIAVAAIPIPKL
Experiment: Compound was evaluated to inhibit cathepsin C (Dipeptidyl peptidase I) in non competitive binding assay

SMILES | pKi
COC(=O)CCP(=O)(O)C(CCc1ccccc1)NC(=O)CN (stereo not drawn) | 3.51
COC(=O)CCP(=O)(O)C(NC(=O)CN)c1ccccc1 (stereo not drawn) | 3.73
COC(=O)CCP(=O)(O)C(Cc1ccccc1)NC(=O)CN (stereo not drawn) | 3.29
NCC(=O)NC(c1ccccc1)P(=O)(O)CCC(=O)O (stereo not drawn) | 3.75
NCC(=O)NC(CCc1ccccc1)P(=O)(O)CCC(=O)O (stereo not drawn) | 3.73

Further lines, results first:

pKi | SMILES
4.41 | CC(C)CC(NC(=O)CN)P(=O)(O)CCC(=O)O (stereo not drawn)
3.37 | NCC(=O)NC(Cc1ccccc1)P(=O)(O)CCC(=O)O (stereo not drawn)
4.40 | COC(=O)CCP(=O)(O)C(CC(C)C)NC(=O)CN (stereo not drawn)
